Measured values: patent publication US20230321042A1, “COMBINATION THERAPY” (PFIZER INC., priority 2020, published 2023)

Experiments:
[1] = target: CDK6/Cyclin D3 (Homo sapiens (Human), UniProt Q00534); experiment: CDK6/Cyclin D3 mobility shift assay; format: biochemical; details: 3.5 mM ATP
Description: The mobility shift assay electrophoretically separates the fluorescently labelled peptides (substrate and phosphorylated product) following the kinase reaction. […] Typical reaction solutions contained 2% DMSO (± inhibitor), 2% glycerol, 10 mM MgCl2, 1 mM DTT, 3.5 mM ATP, 0.005% Tween 20 (TW-20), 3 µM 5-FAM-Dyrktide, 4 nM (active sites) activated CDK6/Cyclin D3 in 40 mM HEPES buffer at pH 7.5.
The reaction was stopped after 95 minutes by the addition of 50 µL of 30 mM EDTA. Ki determinations were made from a plot of the fractional velocity as a function of inhibitor concentration fit to the Morrison equation with the enzyme concentration as a variable.

[2] = tested on: HCC1428; experiment: 7-day anti-proliferation assay (CyQuant Direct) in HCC1428; format: cell-based; details: Homo sapiens, 168 h; HCC1428, 7-day
Description: (§1) Functional effects of test compounds were measured in a 7-day anti-proliferation assay in three ER+ breast cancer cell lines. Cells were seeded in 96-well plates and allowed to adhere overnight prior to compound treatment.

[3] = tested on: MCF7; experiment: 7-day anti-proliferation assay (CyQuant Direct) in MCF7; format: cell-based; details: Homo sapiens, 168 h; MCF7, 7-day
Description: as §1

[4] = tested on: T47D; experiment: 7-day anti-proliferation assay (CyQuant Direct) in T47D; format: cell-based; details: Homo sapiens, 168 h
Description: as §1

[5] = In vivo study in MCF-7 breast cancer xenograft; details: female, mouse, po, BID, MCF7 xenograft model, NSG mice, read-out: maximum tolerated dose level
Description: The MCF7 model was established by implanting passage 0 tumor fragments into recipient mice. To establish the MCF7 donor mice, tumor cells (5 × 10^6 cells/mouse with 50% Cultrex® Basement Membrane Matrix) were subcutaneously implanted in female NSG mice. Once reaching a range of 700 to 800 mm^3, donor tumors were subsequently transplanted into secondary recipient mice for study expansion. […] TGI was assessed on Day 21 post first dose (or Day 42 post tumor fragment implant). […] In the 150 mpk combination group, 50% of mice were found dead or were euthanized by the end of 21 days due to severe anemia.

[6] = target: CDK4/Cyclin D1 (Homo sapiens (Human), UniProt P11802); experiment: CDK4/Cyclin D1 mobility shift assay; format: biochemical; details: 3.5 mM ATP
CDK4/Cyclin D1, sequence (P11802 whole entry): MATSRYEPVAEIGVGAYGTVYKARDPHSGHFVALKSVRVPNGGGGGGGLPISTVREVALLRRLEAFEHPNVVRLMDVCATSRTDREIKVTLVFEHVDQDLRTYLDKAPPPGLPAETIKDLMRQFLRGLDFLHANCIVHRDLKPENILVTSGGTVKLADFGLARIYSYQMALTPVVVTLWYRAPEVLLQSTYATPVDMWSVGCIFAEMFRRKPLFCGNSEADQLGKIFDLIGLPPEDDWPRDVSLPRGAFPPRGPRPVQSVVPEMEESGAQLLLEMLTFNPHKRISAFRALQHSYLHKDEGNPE
CDK4/Cyclin D1, sequence (P24385 whole entry partner): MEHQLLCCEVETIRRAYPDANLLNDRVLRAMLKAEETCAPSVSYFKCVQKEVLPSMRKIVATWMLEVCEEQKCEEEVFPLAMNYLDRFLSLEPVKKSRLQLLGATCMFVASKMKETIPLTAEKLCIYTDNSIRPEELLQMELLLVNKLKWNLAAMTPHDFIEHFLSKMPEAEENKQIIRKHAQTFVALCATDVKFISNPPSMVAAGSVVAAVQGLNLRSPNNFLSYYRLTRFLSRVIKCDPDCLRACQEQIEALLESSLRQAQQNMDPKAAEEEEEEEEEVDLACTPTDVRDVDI
Description: The purpose CDK4/Cyclin D1 assay is to evaluate the inhibition (% inhibition, Kiapp and Ki values) in the presence of small molecule inhibitors by using a fluorescence based microfluidic mobility shift assay. […] The mobility shift assay electrophoretically separates the fluorescently labelled peptides (substrate and phosphorylated product) following the kinase reaction. Both substrate and product are measured and the ratio of these values is used to generate % conversion of substrate to product by the LabChip EZ Reader. […] The reaction was stopped after 195 minutes by the addition of 50 µL of 30 mM EDTA. Ki determinations were made from a plot of the fractional velocity as a function of inhibitor concentration fit to the Morrison equation with the enzyme concentration as a variable.

CDK6/Cyclin D3, sequence (Q00534 whole entry): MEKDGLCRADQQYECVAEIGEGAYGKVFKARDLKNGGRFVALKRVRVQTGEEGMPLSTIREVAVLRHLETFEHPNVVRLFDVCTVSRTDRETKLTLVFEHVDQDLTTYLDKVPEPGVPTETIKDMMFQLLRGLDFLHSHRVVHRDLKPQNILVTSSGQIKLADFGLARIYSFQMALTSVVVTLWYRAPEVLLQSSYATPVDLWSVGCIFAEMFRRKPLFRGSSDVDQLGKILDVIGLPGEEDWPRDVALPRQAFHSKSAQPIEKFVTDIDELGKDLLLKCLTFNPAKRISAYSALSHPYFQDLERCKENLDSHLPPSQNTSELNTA
CDK6/Cyclin D3, sequence (P30281 whole entry partner): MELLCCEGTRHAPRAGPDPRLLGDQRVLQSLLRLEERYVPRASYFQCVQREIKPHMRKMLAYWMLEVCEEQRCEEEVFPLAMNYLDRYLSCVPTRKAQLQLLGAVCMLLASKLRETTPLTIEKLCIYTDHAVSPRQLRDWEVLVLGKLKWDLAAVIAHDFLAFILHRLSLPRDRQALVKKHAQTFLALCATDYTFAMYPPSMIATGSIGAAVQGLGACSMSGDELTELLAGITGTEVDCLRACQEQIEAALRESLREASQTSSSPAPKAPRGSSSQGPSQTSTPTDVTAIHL

Ki [1] | EC50 [2] | EC50 [3] | EC50 [4] | Ki [6] | Structure (SMILES) | MTD at 21 days [5]
254 nM | 790 nM | 190 nM | 220 nM | 107 nM | CC[C@H](C)NC(=O)O[C@@H]1CC[C@H](c2cc(NC(=O)Cc3ccccc3S(C)(=O)=O)n[nH]2)C1 [COMPOUND B, (1R,3S)-3-[3-({[2-(methylsulfonyl)phenyl]acetyl}amino)-1H-pyrazol-5-yl]cyclopentyl (2S)-butan-2-ylcarbamate] | –
215 nM | 710 nM | 336 nM | 443 nM | 149 nM | CCCNC(=O)O[C@@H]1CC[C@H](c2cc(NC(=O)Cc3ccnc(OC)c3)n[nH]2)C1 [COMPOUND C, (1R,3S)-3-(3-{[(2-methoxypyridin-4-yl)acetyl]amino}-1H-pyrazol-5-yl)cyclopentyl propylcarbamate] | –
– | 355 nM | 79 nM | 87 nM | – | CC(=O)c1c(C)c2cnc(Nc3ccc(N4CCNCC4)cn3)nc2n(C2CCCC2)c1=O [Palbociclib, 6-acetyl-8-cyclopentyl-5-methyl-2-(5-piperazin-1-yl-pyridin-2-ylamino)-8H-pyrido[2,3-d]pyrimidin-7-one, reference compound] | –

Structure (SMILES) | Ki [1] | EC50 [2] | EC50 [3] | EC50 [4] | Ki [6] | MTD at 21 days [5]
COCc1cc(C(=O)Nc2cc([C@H]3CC[C@@H](OC(=O)NC(C)C)C3)[nH]n2)n(C)n1 [COMPOUND A, (1R,3S)-3-[3-({[3-(methoxymethyl)-1-methyl-1H-pyrazol-5-yl]carbonyl}amino)-1H-pyrazol-5-yl]cyclopentyl propan-2-ylcarbamate] | 465 nM | > 1000 nM | 386 nM | 403 nM | – | 150 mg/kg
